Article PMC4014704, “β-Boomerang Antimicrobial and Antiendotoxic Peptides: Lipidation and Disulfide Bond Effects on Activity and Structure” (Pharmaceuticals, 2014)
Peptide text beside a SMILES is read from it.

Experiments:
[1] = tested on: LPS micelles; assay: Dynamic light scattering of LPS micelles; parameters: species or system E. coli 0111:B4; details: DLS, 0.5 μM LPS, LPS:peptide 1:4; LPS alone 814 nm
Description: Dynamic light scattering measurements: LPS forms micelles of large sizes, which with the addition of increasing concentration of peptides, dissociates to smaller sizes. DLS measurements were made for 0.5 μM LPS and then with LPS: Peptide ratios of 1:2 and 1:4. The scattering was measured with Dynamic Light Scattering software provided with the instrument (Brookhaven Instruments Corp., Holtsville, NY, USA) and the scattering data was analyzed with CONTIN method.

[2] = tested on: FITC-LPS micelles; assay: Dissociation of FITC-LPS; parameters: species or system E. coli 055:B5; details: 500 nM FITC-LPS, increasing peptide, excitation 480 nm, emission 515 nm
Description: Dissociation of FITC-LPS: LPS molecules form micellar aggregates in water. The competency of the peptides to dissociate LPS micelles were studied using FITC conjugated LPS. In this method, blank fluorescence of 500 nM of FITC-LPS was recorded followed by the addition of increasing concentrations of peptides. The excitation was set at 480 nm and emission at 500–550 nm.

[3] = tested on: outer membrane of E. coli cells; assay: Outer membrane permeability assay (NPN dye); format: cell-based; details: E. coli OD600 0.5, 10 μM NPN
Description: Outer membrane permeability assay: Outer membrane of Gram bacteria acts as permeability barrier for hydrophobic antibacterial compounds. […] E. coli cells were grown to mid logarithmic phase and diluted to an OD600nm of 0.5 in 10 mM sodium phosphate buffer, pH 7.0. The excitation was set at 350 nm and emission at 390–450 nm. NPN was added to the diluted cells at the concentration of 10 μM and a basal fluorescence was recorded followed by the addition of increasing concentration of peptides.

[4] = tested on: E. coli cells; assay: Zeta potential measurements; format: cell-based; details: increasing peptide concentrations, E. coli cells
Description: Zeta potential measurements: The zeta potential measurements were carried out on a Zetasizer Nano ZS (Malvern Instruments, Worcestershire, UK) equipped with a 633 nm He lasers. Mid-log phase grown bacterial cells were diluted to an OD600 of 0.2 and a basal measurement in the absence of peptides was acquired in disposable zeta cells with gold electrodes. Increasing concentrations of the designed peptides were then added to the cells and the measurements were made. A total of five measurements of 100 runs each were carried out for all dilutions.

[5] = tested on: LPS micelles; assay: Isothermal titration calorimetry; format: binding, E. coli 0111:B4; details: lack of saturation
Description: Isothermal titration calorimetry: Binding of designed peptides with LPS micelles was determined using isothermal titration calorimetry in VP-ITC micro calorimeter (Microcal Inc, Northampton, MA, USA). Peptides and LPS samples were dissolved in 10 mM phosphate buffer, pH 7.0 and filtered. LPS at a concentration of 10 μM was loaded into the sample cell and the reference cell was filled with the same buffer. The syringe was filled with 1mM peptide solution. Typically 30 injections of 3.5 μL of the peptides were made into the sample cell at 25 °C. Sample cell was stirred continuously at 300 rpm. Raw data were obtained and analyzed using single site binding model in Microcal Origin 5.0 software. Association constant (Ka) and enthalpy change (ΔH) were directly determined from ITC profiles. Dissociation constant was calculated from Kd = 1/Ka. ΔG and TΔS were estimated from the fundamental equations of thermodynamics, ΔG = −RTlnKa and TΔS = (ΔH − ΔG), respectively.

[6] = Reverse phase HPLC retention time (hydrophobicity); format: physicochemical; parameters: unit not given beside the values; details: C18 column (300 Å pore size, 5 μm particle size), linear gradient acetonitrile/water, higher Rt taken as more hydrophobic
Excerpt: Materials: LPS of E. coli 0111:B4, FITC-LPS of E. coli 055:B5, acrylamide, NPN (1-N-phenylnaphthylamine) were purchased from Sigma (Saint Louis, MO, USA). All bacterial strains were obtained from the American Type Culture Collection (Manassas, VA, USA). Designed peptides were synthesized commercially by GL Biochem (Shanghai, China) and further purified by a reverse phase HPLC (Waters), using a C18 column (300 Å pore size, 5 μm particle size). The dimeric variants of β-boomerang lipopeptides were treated with 20% DMSO for 18 hours and the oxidized peptides were further purified by HPLC. A linear gradient of acetonitrile/water mixture was used for the purification and fractions eluting with higher purity were collected and freeze-dried.
(§1) In addition, incorporation of disulfide bridges in AMPs may stabilize conformations and enhance cationicity and hydrophobicity required for enhanced activity. […] Residue Ile10 was chosen for Cys replacement since this residue is located at the exposed face of the β-strand of the YI12WF structure (Figure 1).

[7] = aqueous solution for NMR
Excerpt: as §1
The solution conformations of YI13C, C4YI13C peptides were examined in free solution using two-dimensional ^1H-^1H NOESY and TOCSY experiments.

With `CCCCCCCC(=O)N[C@@H](Cc1ccc(O)cc1)C(=O)N[C@H](C(=O)N[C@@H](CC(C)C)C(=O)N[C@@H](C)C(=O)N[C@@H](CCCCN)C(=O)N[C@@H](CCCNC(=N)N)C(=O)N[C@@H](CCCCN)C(=O)N[C@@H](CCCNC(=N)N)C(=O)N[C@@H](CCCCN)C(=O)N[C@@H](C)C(=O)N[C@@H](CSSC[C@H](NC(=O)[C@H](C)NC(=O)[C@H](CCCCN)NC(=O)[C@H](CCCNC(=N)N)NC(=O)[C@H](CCCCN)NC(=O)[C@H](CCCNC(=N)N)NC(=O)[C@H](CCCCN)NC(=O)[C@H](C)NC(=O)[C@H](CC(C)C)NC(=O)[C@@H](NC(=O)[C@H](Cc1ccc(O)cc1)NC(=O)CCCCCCC)C(C)C)C(=O)N[C@@H](Cc1ccccc1)C(=O)N[C@H](C(N)=O)[C@@H](C)CC)C(=O)N[C@@H](Cc1ccccc1)C(=O)N[C@H](C(N)=O)[C@@H](C)CC)C(C)C` [C8YI13CAA] (HELM PEPTIDE1{[CCCCCCCC(=O)[*:2]].Y.V.L.A.K.R.K.R.K.A.C.F.I.[am]}|PEPTIDE2{[CCCCCCCC(=O)[*:2]].Y.V.L.A.K.R.K.R.K.A.C.F.I.[am]}$PEPTIDE1,PEPTIDE2,12:R3-12:R3$$$V2.0; N-terminus and C-terminus assumed) the “Diameter of LPS aggregates” value [1] was 630 nm, the “FITC fluorescence intensity / dissociation of FITC-LPS (in words)” value [2] was “remained unchanged” and the “NPN fluorescence intensity with increasing peptide (in words)” value [3] was “no marked increase in intensity”. The “Change in zeta potential (in words)” value [4] was “did not show any detectable change in zeta potential”, the “Interaction with LPS by ITC (in words)” value [5] was “interacted weakly with LPS” and the “Retention time (Rt)” value [6] was 32.38. The “Solubility for NMR studies (in words)” value [7] was “limited solubility”.
